Measurements taken from patent US10988465B2, “CXCR4 inhibitors and uses thereof” (X4 Pharmaceuticals, Inc., priority 2016, dated 2021).

Legend:
in vitro = conditions: human, Caco-2, pH 7.4
Method in brief: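 Bidirectional permeability across Caco-2 monolayers in HBSS (pH 7.4) at a test concentration of 10 μM, incubated 0 and 90 min at 37° C (n=2). Monolayer integrity was assessed by TEER and Lucifer yellow. Papp was derived from LC-MS/MS-measured concentrations.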

[1] = target: T1, CXCR-4 transfected U87 cell line (U87.CXCR4) (Homo sapiens, UniProt P61073); experiment: Intracellular CXCL-12-induced calcium mobilization assay (FLIPR); assay type: cell-based; conditions: U87.CXCR4 cells; CXCL-12 25-50 ng/mL; compound added 15 min before; read-out: IC50 CXCL-12 Ca^2+ flux U87.CXCR4+
T1 construct: expressed in transfected cells; host or cells: U87 (U87.CXCR4)
T1 sequence (P61073 whole entry): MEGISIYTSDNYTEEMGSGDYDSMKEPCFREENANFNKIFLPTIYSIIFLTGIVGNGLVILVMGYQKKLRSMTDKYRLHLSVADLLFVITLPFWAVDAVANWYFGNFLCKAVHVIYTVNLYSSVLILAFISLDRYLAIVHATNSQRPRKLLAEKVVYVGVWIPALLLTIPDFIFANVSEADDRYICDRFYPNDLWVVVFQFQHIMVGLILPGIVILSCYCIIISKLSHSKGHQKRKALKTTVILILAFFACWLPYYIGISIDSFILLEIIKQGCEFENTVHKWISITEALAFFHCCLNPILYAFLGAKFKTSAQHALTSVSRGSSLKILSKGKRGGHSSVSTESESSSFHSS
Method in brief: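 CXCL-12 (25-50 ng/mL) was the stimulus, and the intracellular calcium rise was tracked kinetically by FLIPR at 37 °C. Cells were U87.CXCR4 transfectants pre-loaded 45 min at 37 °C with 4 μM (final) Fluo-2 AM in HEPES-buffered HBSS with 0.2% BSA, pH 7.4.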

[2] = target: T2, Jurkat cells expressing CXCR4 (Homo sapiens, UniProt P61073); experiment: Chemokine (CXCL12-AF647) binding inhibition assay; conditions: CXCL12-AF647 25 ng/mL, read-out: IC50 CXCL-12 binding Jurkat
T2 construct: endogenous in cells; host or cells: Jurkat
T2 sequence (P61073 whole entry): as above
Method in brief: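 Cells in HBSS, 20 mM HEPES, 0.2% BSA, pH 7.4, preincubated 15 min at room temperature with compound, then 25 ng/mL CXCL12-AF647 for 30 min. After washing and paraformaldehyde fixation, bound ligand read by flow cytometry; percent inhibition calculated from MFI relative to unlabeled and ligand-only controls.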

| Papp A→B at 90 min, 10 μM (in vitro) [×10⁻⁶ cm/s] | Papp B→A at 90 min, 10 μM (in vitro) [×10⁻⁶ cm/s] | efflux ratio at 90 min, 10 μM (in vitro) | IC50 [1] [nM] | IC50 [2] [nM] | Structure (SMILES) |
| --- | --- | --- | --- | --- | --- |
| 10 to 30 | 10 to 30 | 0.1 to 10 | 0.01 to 100 | 0.01 to 100 | Cc1cccnc1[C@@H]1CCC[C@H](c2nc3cccc(N4CCN(C)C(C)(C)C4)c3[nH]2)N1C [I-55] |
| 0.1 to 10 | 10 to 30 | 0.1 to 10 | 0.01 to 100 | 0.01 to 100 | COc1cccnc1[C@@H]1CCC[C@H](c2nc3cccc(N4CCN(C)CC4)c3[nH]2)N1C [I-62] |
| 10 to 30 | 0.1 to 10 | 0.1 to 10 | 0.01 to 100 | 100 to 1000 | CN1CCN(c2cccc3nc([C@H]4CCC[C@@H](c5ncccc5OC(F)(F)F)N4C)[nH]c23)CC1 [I-63] |
| 10 to 30 | 10 to 30 | 0.1 to 10 | 100 to 1000 | 100 to 1000 | CN1CCN(c2cccc3nc([C@H]4CCC[C@@H](c5nccc6c5OCCO6)N4C)[nH]c23)CC1 [I-65] |
| 10 to 30 | 10 to 30 | 0.1 to 10 | ≥ 1000 | 100 to 1000 | Cc1ccnc([C@@H]2CCC[C@H](c3nc4cccc(N5CCN(C)CC5)c4[nH]3)N2C)c1 [I-71] |
| 10 to 30 | 10 to 30 | 0.1 to 10 | 0.01 to 100 | 0.01 to 100 | CCN1CCN(c2cccc3nc([C@H]4CCC[C@@H](c5ncccc5C)N4C)[nH]c23)CC1 [I-74] |
| 10 to 30 | 0.1 to 10 | 0.1 to 10 | 0.01 to 100 | 0.01 to 100 | Cc1cccnc1[C@@H]1CCC[C@H](c2nc3cccc(N4CCN(C(C)C)CC4)c3[nH]2)N1C [I-75] |
| 0.1 to 10 | 0.1 to 10 | 0.1 to 10 | 0.01 to 100 | 0.01 to 100 | CN1CCN(c2cccc3nc([C@H]4CCC[C@@H](c5nccc6ccccc56)N4C)[nH]c23)CC1 [I-88] |
| 10 to 30 | 10 to 30 | 0.1 to 10 | ≥ 1000 | 100 to 1000 | CN1CCN(c2cccc3nc([C@H]4CCC[C@@H](c5ncn6ccccc56)N4C)[nH]c23)CC1 [I-93] |
| 10 to 30 | 10 to 30 | 0.1 to 10 | ≥ 1000 | 0.01 to 100 | CN(C)C1CCN(c2cccc3nc([C@H]4CCC[C@@H](c5ncccc5Cl)N4C)[nH]c23)CC1 [I-97] |
| 10 to 30 | 10 to 30 | – | 0.01 to 100 | 0.01 to 100 | [2H]C([2H])([2H])N1CCN(c2cccc3nc([C@H]4CCC[C@@H](c5ncccc5C)N4C)[nH]c23)CC1 [I-111] |
| 10 to 30 | 10 to 30 | – | 0.01 to 100 | 0.01 to 100 | [2H]C([2H])([2H])N1[C@@H](c2nc3cccc(N4CCN(C)CC4)c3[nH]2)CCC[C@H]1c1ncccc1C [I-112] |
| 10 to 30 | 10 to 30 | 0.1 to 10 | 100 to 1000 | 0.01 to 100 | Cc1ccnc([C@@H]2CCC[C@H](c3nc4cccc(N5CCN(C)CC5)c4[nH]3)N2C)c1Cl [I-116] |

More lines, now with the values behind:

| Structure (SMILES) | Papp A→B at 90 min, 10 μM (in vitro) [×10⁻⁶ cm/s] | Papp B→A at 90 min, 10 μM (in vitro) [×10⁻⁶ cm/s] | efflux ratio at 90 min, 10 μM (in vitro) | IC50 [1] [nM] | IC50 [2] [nM] |
| --- | --- | --- | --- | --- | --- |
| Cc1cccnc1[C@@H]1CCC[C@H](c2nc3cccc(N4C5CCC4CN(C)C5)c3[nH]2)N1C [I-57] | 10 to 30 | 10 to 30 | 0.1 to 10 | 0.01 to 100 | 0.01 to 100 |
| Cc1cccnc1[C@@H]1CCC[C@H](c2nc3cccc(N4CCC(N(C)C)CC4)c3[nH]2)N1C [I-67] | 0.1 to 10 | 10 to 30 | 0.1 to 10 | 0.01 to 100 | 0.01 to 100 |
| CN1CCN(c2cccc3nc([C@H]4CCC[C@@H](c5ncccc5OC5CC5)N4C)[nH]c23)CC1 [I-72] | 10 to 30 | 10 to 30 | 0.1 to 10 | ≥ 1000 | 100 to 1000 |
| Cc1cccnc1[C@@H]1CCC[C@H](c2nc3cccc(N4CCN(C)CC4=O)c3[nH]2)N1C [I-73] | 0.1 to 10 | 10 to 30 | > 30 | 100 to 1000 | 0.01 to 100 |
| Cc1ccnnc1[C@@H]1CCC[C@H](c2nc3cccc(N4CCN(C)CC4)c3[nH]2)N1C [I-84] | 0.1 to 10 | 10 to 30 | 10 to 30 | ≥ 1000 | 100 to 1000 |
| CN1CCN(c2cccc3nc([C@H]4CCC[C@@H](c5nccc6occc56)N4C)[nH]c23)CC1 [I-92] | 10 to 30 | 10 to 30 | 0.1 to 10 | 100 to 1000 | 0.01 to 100 |
| Cc1cccnc1[C@@H]1CCC[C@H](c2nc3cccc(N4CC5CCC(C4)N5)c3[nH]2)N1C [I-98] | 0.1 to 10 | 10 to 30 | > 30 | 0.01 to 100 | 0.01 to 100 |
| Cc1cccnc1[C@@H]1CCC[C@H](c2nc3cccc(N4C5CCC4CNC5)c3[nH]2)N1C [I-99] | 0.1 to 10 | > 30 | > 30 | 0.01 to 100 | 0.01 to 100 |
| Cc1cccnc1[C@@H]1C[C@H](O)C[C@H](c2nc3cccc(N4CCN(C)CC4)c3[nH]2)N1C [I-100] | 0.1 to 10 | 10 to 30 | > 30 | 0.01 to 100 | 0.01 to 100 |
| Cc1cccnc1[C@@H]1C[C@@H](O)C[C@H](c2nc3cccc(N4CCN(C)CC4)c3[nH]2)N1C [I-101] | 0.1 to 10 | 10 to 30 | > 30 | 0.01 to 100 | 0.01 to 100 |
| CO[C@@H]1C[C@H](c2nc3cccc(N4CCN(C)CC4)c3[nH]2)N(C)[C@H](c2ncccc2C)C1 [I-102] | 0.1 to 10 | 10 to 30 | 0.1 to 10 | 100 to 1000 | 0.01 to 100 |
| Cc1nccnc1[C@@H]1CCC[C@H](c2nc3cccc(N4CCN(C)CC4)c3[nH]2)N1C [I-105] | 0.1 to 10 | 10 to 30 | 0.1 to 10 | ≥ 1000 | 100 to 1000 |
| Cc1cccnc1[C@@H]1CCC[C@H](c2nc3cccc(N4CC5CC(C4)N5C)c3[nH]2)N1C [I-109] | 0.1 to 10 | 10 to 30 | 0.1 to 10 | 100 to 1000 | 0.01 to 100 |
| Cc1cccnc1[C@@H]1CCC[C@H](c2nc3cccc(N4CC5CC4CN5C)c3[nH]2)N1C (stereo partly shown) [I-110] | 0.1 to 10 | 10 to 30 | 0.1 to 10 | 100 to 1000 | 0.01 to 100 |
| CCc1cccnc1[C@@H]1CCC[C@H](c2nc3cccc(N4CCN(C)CC4)c3[nH]2)N1C [I-114] | 10 to 30 | 10 to 30 | 0.1 to 10 | 0.01 to 100 | 0.01 to 100 |
| Cc1ccnc([C@@H]2CCC[C@H](c3nc4cccc(N5CCN(C)CC5)c4[nH]3)N2C)c1C [I-115] | 0.1 to 10 | 0.1 to 10 | 0.1 to 10 | 100 to 1000 | 0.01 to 100 |
| Cc1cccnc1[C@@H]1CCC[C@H](c2nc3cccc(N4CC5CCC(C4)N5C)c3[nH]2)N1 [I-118] | 0.1 to 10 | > 30 | 10 to 30 | 0.01 to 100 | 0.01 to 100 |
| CN1C2CCC1CN(c1cccc3nc([C@H]4CCC[C@@H](c5ncccc5Cl)N4)[nH]c13)C2 [I-119] | 10 to 30 | 10 to 30 | 0.1 to 10 | 100 to 1000 | 0.01 to 100 |
| CN1CC2CCC(C1)N2c1cccc2nc([C@H]3CCC[C@@H](c4ncccc4Cl)N3)[nH]c12 [I-121] | 10 to 30 | 10 to 30 | 0.1 to 10 | 0.01 to 100 | 0.01 to 100 |
| Cc1cccnc1[C@@H]1CCC[C@H](c2nc3cccc(N4CCN(C)CC4)c3n2C)N1 [I-123] | 0.1 to 10 | 10 to 30 | 0.1 to 10 | 0.01 to 100 | 0.01 to 100 |
| Cc1cccnc1[C@@H]1CCC[C@H](c2nc3cccc(N4CCN(C5CC5)CC4)c3[nH]2)N1 [I-125] | 10 to 30 | 10 to 30 | 0.1 to 10 | 0.01 to 100 | 0.01 to 100 |
| Cc1cccnc1[C@@H]1CCC[C@H](c2nc3cccc(N4CCN5CCCC5C4)c3[nH]2)N1 (stereo partly shown) [I-126] | 0.1 to 10 | 10 to 30 | 0.1 to 10 | 0.01 to 100 | 0.01 to 100 |
| Cc1cccnc1[C@@H]1CCC[C@H](c2nc3cccc(N4CCNC5(CC5)C4)c3[nH]2)N1C [I-129] | 10 to 30 | 10 to 30 | 0.1 to 10 | 100 to 1000 | 0.01 to 100 |
